{"source": "patent US20130338114A1", "about": "“COMPOSITIONS FOR INCREASING STRENGTH, MUSCLE MASS, AND LEAN BODY MASS” (Chemi Nutra, priority 2012, published 2013)", "key": {"[1]": {"test": "LC/MS/MS analysis of LPA and PA in human plasma after oral PA (Example 8)", "settings": "in vivo", "source_text": "Lyso-phosphatidic acid (LPA) and phosphatidic acid (PA) from human plasma includes a physical distribution of molecules varying in their fatty acids esterified to the sn-1 and sn-2 positions of glycerol-3-phosphate. The differences in polarity among the fatty acid substituted structures provide a means to resolve individual species under reversed phase chromatographic conditions. This analysis coupled with selective mass spectrometric detection based on molecular weight and distinctive fragmentation for LPA and PA compounds provided the basis for quantitation in the samples described herein. Total LPA and PA content are measured as the sum of the individual species measured.\nHuman plasma of a subject was analyzed after administration of lyso-phosphatidic acid and phosphatidic acid. One subject consumed 2 g of PA in form of Mediator® (Chemi Nutra). The data from the study provided the composition and concentration of PA and lyso-PA in human blood plasma as a baseline value, and changes in PA and lyso-PA concentrations after 30 minutes, 1 hour, 2 hours, 3 hours and 7 hours. It was determined that PA administration results in increases in lyso-PA and PA concentrations in human blood plasma.\nAn ultra performance liquid chromatograph with triple quadrupole mass spectrometry (LC/MS/MS) method was utilized to measure the content of LPA and PA molecular species in human plasma. A Waters Acquity™ Ultra-performance liquid chromatography system coupled with an AB Sciex 5500 tandem quadrupole mass spectrometer was the instrumentation platform.\nColumn: Agilent, Eclipse™ XDB-C8 4.6×150 mm, 1.8 μm, sn. USHAN01857, pn. 927975-906. Flow=1 mL/minute at 40° C. Mobile phases: A=70:28.5:1.5 (/v) methanol:water:acetic acid with 0.08% TEA/v;\nThe identified molecular species were detected using a multiple reaction monitoring (MRM) technique for the -ve mode exact mass of [M-H]^− and the corresponding fragment 153 amu. […]\nThe content of each molecular species was calculated from the internal standards present in each sample extract. […]"}, "[2]": {"tested_on": "known non-responder to creatine supplementation", "test": "Creatine non-responder Subject A (RJ): body weight and total strength, two-week strength training program", "assay_type": "in vivo, human", "settings": "subject one", "method": "patient one, 198 cm tall, a known non-responder to creatine supplementation, followed a two-week strength training program while testing whether supplementation with PA-enriched-phospholipid improves creatine response. Total starting body weight and strength were measured on day one, followed by the training program, consisting of concentric and eccentric isotonic lifting exercises that worked the upper and lower body muscle groups. Either free weights or weight machines were used once or twice weekly. Strength training was performed three times per week with at least one day of rest between sessions, which alternated between lower and upper body exercises. During the two-week period, a total of six training sessions (three upper and three lower) were performed. Each exercise included two sets of ten repetitions at 30% and 60% 1RM, followed by two sets of 3 to 5 repetitions at 90% 1RM. The lower body exercise included seven different exercises: seated leg press, leg curls, standing calf raises, leg extensions, inclined leg lift, inverted situps (back extension) and 45° inclined situps. The upper body exercise consisted of seven different exercises: bench press, latissimus pulldown, triceps pulldown, inclined dumbbell curls, seated preacher curls, seated rows, and CyBec Pec Fly. Total upper body weight and lower body weight lifted were calculated as the average weight lifted during the last three sets multiplied by the average repetition in each set. Total strength was determined as the combined lower and upper total weight lifted. Total body weight was determined after day 8 and day 15. Strength was measured on days 1 and 15. A four-week rest period followed the first two-week training program. The same program was repeated twice, the control was supplementation of creatine monohydrate (Creapure, Alzchem, Germany) 4 times 5 grams per day for five days of loading, followed by nine days of five grams creatine monohydrate. During the second program, creatine monohydrate was given as for the control program with the addition of PA-enriched phospholipid (Chemi Nutra, White Bear Lake, Minn.) which was about 50% PA."}, "[3]": {"tested_on": "known non-responder to creatine supplementation", "test": "Creatine non-responder Subject B (MP): body weight and total strength, three-week strength training program", "assay_type": "in vivo, human", "settings": "subject two", "method": "patient two, 185 cm tall, also a known non-responder to creatine supplementation, followed a three-week strength training program while testing whether supplementation with PA-enriched-phospholipid improves creatine response. Total starting total body weight and strength were measured on day one, followed by the training program, consisting of concentric and eccentric isotonic lifting exercises that worked the upper and lower body muscle groups with either free weights or weight machines used once or twice weekly. Strength training was performed three times per week with at least one day of rest between sessions, which alternated between lower and upper body exercises. During the three-week period, a total of 10 training sessions (five upper body and five lower body) were performed. Each exercise included two sets of ten repetitions at 40% and 65% 1RM, followed by two sets of 3 to 5 repetitions at 90% 1RM.\nThe lower body exercise included seven different exercises: seated leg press, leg curls, standing calf raises, leg extension, inclined leg lift, inverted situps (back extension) and 45° inclined situps. The upper body exercise consisted of seven different exercises: bench press, latissimus pulldown, triceps pulldown, inclined dumbbell curls, seated preacher curls, seated rows, and CyBec Pec Fly. Total upper body and lower body weight lifted were calculated as the average weight lifted during the last three sets multiplied by the average repetition in each set. Total strength was determined as the combined lower and upper total weight lifted. […] Strength was measured on days 1 and 22.\nA four-week rest period followed the first three-week training program. The same program was repeated twice, the control was supplemented with creatine monohydrate (Creapure®, Alzchem, Germany), 5 grams per day of five grams creatine monohydrate for 21 days. During the second program, creatine monohydrate was given as for the control program with the addition of 1 gram per day PA-enriched phospholipid (Chemi Nutra, White Bear Lake, Minn.), which contained about 50% PA."}}}
{"smiles": "CCCCCCCCCCCCCCCC(=O)OCC(O)COP(=O)(O)O", "note": "(centres unmarked) [16:0 LPA]", "values": [{"measurement": "plasma concentration, Time 0 @10 AM", "setting": "[1]", "value": 51.33, "unit": "nM"}]}
{"smiles": "CCCCCCCCCCCCCC(=O)OC[C@@H](O)COP(=O)(O)O", "note": "[14:0 LPA]", "values": [{"measurement": "plasma concentration, Time 0 @10 AM", "setting": "[1]", "value": 13.00, "unit": "nM"}]}
{"smiles": "CN(CC(=O)O)C(=N)N", "note": "[Creatine Supplement, N-methyl-N-guanyl glycine]", "values": [{"measurement": "body weight, day 1", "setting": "[2]; day 1", "value": 88.8, "unit": "kg"}, {"measurement": "increase in total strength (total weight lifted)", "setting": "[2]; day 1 to day 15", "value": 5, "unit": "%"}, {"measurement": "body weight, day 8", "setting": "[2]; day 8", "value": 88.3, "unit": "kg"}, {"measurement": "body weight, day 15", "setting": "[2]; day 15", "value": 88.0, "unit": "kg"}, {"measurement": "body weight, day 1", "setting": "[3]; day 1", "value": 81.9, "unit": "kg"}, {"measurement": "increase in total strength (total weight lifted)", "setting": "[3]; day 1 to day 22", "value": 5, "unit": "%"}, {"measurement": "body weight, day 10", "setting": "[3]; day 10", "value": 81.5, "unit": "kg"}, {"measurement": "body weight, day 22", "setting": "[3]; day 22", "value": 81.2, "unit": "kg"}]}
{"smiles": "CCCCCCCCCCCCCCCCCC(=O)OC[C@@H](O)COP(=O)(O)O", "note": "[18:0 LPA]", "values": [{"measurement": "plasma concentration, Time 0 @10 AM", "setting": "[1]", "value": 0.00, "unit": "nM"}]}
